{"source": "patent US11173192B2", "about": "(priority 2016, dated 2021)", "key": {"[1]": {"test_system": "VSV", "assay_type": "cell-based, vesicular stomatitis virus (VSV)"}, "[2]": {"test_system": "VSV-infected RAW264.7 cells", "assay_type": "cell-based"}}}
{"substance": "EPRS: glutamyl-prolyl-tRNA synthetase protein, 1512 aa, SEQ ID NO: 63; expressed from plasmid or purified", "values": [{"measurement": "viral replication following infection with VSV", "setting": "[1]", "result": "significantly less viral replication"}, {"measurement": "IFN-β production following infection with VSV", "setting": "[2]", "result": "more production of IFN-β and IL-6"}, {"measurement": "IL-6 production following infection with VSV", "setting": "[2]", "result": "more production of IFN-β and IL-6"}]}
